Assay results published in patent publication US8242087B2, “Phosphate modified nucleosides useful as substrates for polymerases and as antiviral agents” (priority 2007, dated 2012).

Legend:
Type in all cases: biochemical, HIV-1
[1] = target: T1, HIV reverse transcriptase (Human immunodeficiency virus type 1 group M subtype B, UniProt P03366); assay: Gel-based single-nucleotide-incorporation and control assays with HIV RT (Example 4)
T1 construct: performed for the enzyme HIV reverse transcriptase (GE Healthcare, 30 U/4 stock solution); purchased GE Healthcare
Experimental: End-labeled primers were annealed to their template by combining primer and templates in a molar ratio of 1:2 and heating the mixture to 70° C. for 10 minutes, followed by slow cooling to room temperature over a period of 2.5 hours. For the incorporation of L-Asp-dGMP (9), L-Asp-dTMP (10), L-Asp-dCMP (11), and N-Me-Asp-dAMP (12) (see FIG. 13), the primer P1 was annealed to templates T1, T2, T4 or A and P2 was annealed to T4. A series of 20 μL reactions was performed for the enzyme HIV reverse transcriptase (GE Healthcare, 30 U/4 stock solution). The final mixture contained 125 nM primer-template complex, RT buffer (250 mM TrisHCl, 250 mM KCl, 50 mM MgCl2, 2.5 mM spermidine, 50 mM DTT, pH 8.3), 0.03 U/μL HIV RT and different amino acid phosphoramidates building blocks concentrations. In the control reaction with the natural nucleotide, 10 μM or 50 μM dGTP, dTTP, dATP or dCTP were used. The mixture was incubated at 37° C. […] and aliquots were quenched after 5, 10, 20, 30, 60 and 120 minutes respectively.
All polymerase reactions (3 μL) were quenched by the addition of 10 μL of loading buffer (90% formamide, 0.05% bromophenol blue, 0.05% xylene cyanol and 50 mM EDTA). Samples were heated at 70° C. for 5 minutes prior to analysis by electrophoresis for 2-3 hours at 2000 V on a 0.4 mm 20% denaturing gel in the presence of a 100 mM Tris-borate, 2.5 mM EDTA buffer, pH 8.3. Products were visualized by phosphor imaging. The amount of radioactivity in the bands corresponding to the products of enzymatic reactions was determined by using the Optiquant image analysis software (Perkin Elmer).

[2] = target: T1, HIV reverse transcriptase; assay: as above; conditions: P1/T2; 9 incorporated first (two hours), then compound 1 added, two more hours
[3] = target: T2, HIV reverse transcriptase (HIV RT) (Human immunodeficiency virus type 1 group M subtype B, UniProt P03366); assay: Single nucleotide incorporation by HIV RT, gel-based, P1/T1 (Examples 2-3)
T2 construct: HIV RT polymerase was purchased from GE Healthcare; purchased GE Healthcare (Amersham Bioscience)
Experimental: A typical single nucleotide incorporation and primer extension assays using HIV RT polymerase was carried out similar to one described in the literature. HIV RT polymerase was purchased from GE Healthcare and was supplied as either 12 or 30 U/μL stock solution. The final concentration of HIV RT in a reaction mixture was 0.03-0.003 U/μL. A primer/template duplex mixture was prepared by combining appropriate amounts of a 5′-^33P-labeled primer (P1) and a template in 1:2 molar ratio to provide a 4× solution with 0.5 μM primer concentration. The polymerase reactions were carried out in a 5×RT buffer containing 250 mM TRIS.HCL, 250 mM KCl, 50 mM MgCl2, 2.5 mM spermidine, 50 mM DTT, pH 8.3. For the single nucleotide incorporation assay, a P1/T1 primer-template pair was used whereas the primer extension study was performed with P1/T3 and P1/T5 primer-template pairs.
Briefly, a mixture containing 5 μL of the 4× primer/DNA duplex solution and 5 μL of 4× polymerase solution was pre-incubated at 37° C. for 2 minutes to ensure formation a DNA polymerase/DNA duplex complex. Simultaneously, 2× solutions of dNTP to provide final concentrations of 100 μM, 200 μM, 500 μM and 1 mM were also pre-incubated at 37° C. for 2 minutes as well. The polymerase reaction in a total volume of 20 μL was initiated by addition of 10 μL of the 2× dNTP solution to the DNA polymerase/DNA duplex mixture. The reactions were run at 37° C. and aliquots (2.5 μL) were removed at specified time points and mixed with 10 μL of a quenching buffer containing 80% formamide, 2 mM EDTA, 1×TBE. Quenched reactions were analyzed by loading 2 μL of a reaction sample onto a 20% denaturing polyacrylamide:gel (19:1 acrylamide:bisacrylamide, 7M urea, 0.4 mm×30 cm×40 cm) made in 1×TBE buffer (90 mM Tris-borate, 2 mM EDTA, pH 8.3). The gel was pre-equilibrated for 2 hours before loading and the reactions were run along with a tracking dye marker containing bromophenol blue (BB) and xylene cyanol (XC) until the BB dye had run ⅔ of the total gel length. For visualization, gels were scanned using a Cyclone Phosphoroimager.

Substance: 2′-deoxy-adenosine-5′-aspartyl-phosphoramidate [Compound 1]
- base-pairing selectivity of incorporation ([1]; P1/T1): inserted selectively against thymine
- incorporation with blunt ended duplex ([1]; primer P1, template A): none of these compounds incorporated at all
- n+1 product [2]: 20%
- n+2 product [2]: 80%
- conversion to a n+1 strand ([3]; 500 μM nucleotide concentration, 60 min, P1/T1): 90%
- incorporation ([3]; substrate concentration decreased 10 fold (from 500 μM)): 24.1%
